Test results from paper PMC7531286 (Phytomedicine, 2020).
pKd: −log10 of the molar value.

Legend:
[1] = biological target: SARS-CoV-2 spike protein (S1 subunit, His tag) (Severe acute respiratory syndrome coronavirus 2, UniProt P0DTC2); experiment: biochemical; assay type: binding
[2] = biological target: MERS-CoV spike protein (S1 subunit, His tag) (Middle East respiratory syndrome-related coronavirus, UniProt K9N5Q8); experiment: biochemical; assay type: binding
[3] = biological target: SARS-CoV spike protein (S1 subunit, His tag) (Severe acute respiratory syndrome coronavirus, UniProt P59594); experiment: biochemical; assay type: binding
[4] = biological target: SARS-CoV-2 S-RBD/ACE2 interaction (Severe acute respiratory syndrome coronavirus 2, UniProt P0DTC2); assay type: cell-based
[5] = tested on: mouse aorta smooth muscle cells (MASMCs); experiment: MTT cell toxicity assay, MASMCs; details: at high concentrations (100 μM)

Chain of MERS-CoV spike protein (S1 subunit, His tag) (K9N5Q8 18-751 limits assumed): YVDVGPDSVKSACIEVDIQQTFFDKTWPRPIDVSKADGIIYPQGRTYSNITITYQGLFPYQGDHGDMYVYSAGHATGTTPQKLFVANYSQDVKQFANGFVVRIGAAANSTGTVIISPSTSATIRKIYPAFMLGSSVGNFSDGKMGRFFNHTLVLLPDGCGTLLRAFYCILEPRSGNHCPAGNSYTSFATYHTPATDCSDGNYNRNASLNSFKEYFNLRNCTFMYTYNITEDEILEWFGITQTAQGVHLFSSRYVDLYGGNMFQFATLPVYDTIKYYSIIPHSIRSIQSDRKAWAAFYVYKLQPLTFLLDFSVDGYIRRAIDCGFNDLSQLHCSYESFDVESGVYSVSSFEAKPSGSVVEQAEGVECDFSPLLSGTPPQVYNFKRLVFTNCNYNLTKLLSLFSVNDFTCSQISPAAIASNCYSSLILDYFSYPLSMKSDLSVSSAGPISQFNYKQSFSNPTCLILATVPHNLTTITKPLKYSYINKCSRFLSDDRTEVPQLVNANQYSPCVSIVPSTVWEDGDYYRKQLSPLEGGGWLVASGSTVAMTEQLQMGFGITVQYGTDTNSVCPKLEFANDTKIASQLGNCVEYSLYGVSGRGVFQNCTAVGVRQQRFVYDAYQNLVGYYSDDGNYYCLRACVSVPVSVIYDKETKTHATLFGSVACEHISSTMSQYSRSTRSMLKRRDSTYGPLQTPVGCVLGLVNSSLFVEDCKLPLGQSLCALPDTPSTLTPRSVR

CC(C)=CCC[C@](C)(O[C@@H]1O[C@H](CO[C@@H]2O[C@H](CO)[C@@H](O)[C@H](O)[C@H]2O)[C@@H](O)[C@H](O)[C@H]1O)[C@H]1CC[C@]2(C)[C@@H]1[C@H](O)C[C@@H]1[C@@]3(C)CC[C@H](O[C@@H]4O[C@H](CO)[C@@H](O)[C@H](O)[C@H]4O[C@@H]4O[C@H](CO)[C@@H](O)[C@H](O)[C@H]4O)C(C)(C)[C@@H]3CC[C@]12C [ZZY-9, Ginsenoside Rb1]
pKd [1]: 6.33
pKd [2]: 5.46
pKd [3]: 4.53

CC(C)=CCC[C@](C)(O[C@@H]1O[C@H](CO[C@@H]2OC[C@@H](O)[C@H](O)[C@H]2O)[C@@H](O)[C@H](O)[C@H]1O)[C@H]1CC[C@]2(C)[C@@H]1[C@H](O)C[C@@H]1[C@@]3(C)CC[C@H](O[C@@H]4O[C@H](CO)[C@@H](O)[C@H](O)[C@H]4O[C@@H]4O[C@H](CO)[C@@H](O)[C@H](O)[C@H]4O)C(C)(C)[C@@H]3CC[C@]12C [ZZY-13, Ginsenoside Rb3]
pKd [1]: 6.00
pKd [2]: 6.60
pKd [3]: 5.70
Disruption of the SARS-CoV-2 S-RBD/ACE2 interaction in cells [4]: could disrupt
Cell toxicity to MASMCs [5]: no cell toxicity

CC1(C)[C@@H](O[C@H]2O[C@H](C(=O)O)[C@@H](O)[C@H](O)[C@H]2O[C@@H]2O[C@H](C(=O)O)[C@@H](O)[C@H](O)[C@H]2O)CC[C@]2(C)[C@H]3C(=O)C=C4[C@@H]5C[C@@](C)(C(=O)O)CC[C@]5(C)CC[C@@]4(C)[C@]3(C)CC[C@@H]12 [ZZY-44, Glycyrrhizic acid]
pKd [2]: 6.33
pKd [3]: 4.18
Disruption of the SARS-CoV-2 S-RBD/ACE2 interaction in cells [4]: could disrupt
Cell toxicity to MASMCs [5]: no cell toxicity

COc1ccc2cc3[n+](cc2c1OC)CCc1cc2c(cc1-3)OCO2 [ZZY-54, Berberine Chloride]
pKd [1]: 5.91
pKd [2]: 5.13
pKd [3]: 4.62
